{"source": "patent US20230123585A1", "about": "“COMPOSITIONS AND METHODS FOR TREATING OR PREVENTING CANCER USING DEUBIQUITINASE INHIBITORS” (The University of Chicago, priority 2020, published 2023)", "key": {"[1]": {"tested_on": "p-METTL3 (S43)", "assay": "p-METTL3 (S43) in A375 cells, IP with METTL3 antibody followed by immunoblot", "format": "cell-based, human", "conditions": "1 h, 1 μM dabrafenib, 1 μM PLX-4720, 10 μM PD0325901, 0.1 μM trametinib", "source_text": "FIGS. 10A-10G: ERK Interacts and Phosphorylates METTL3 and WTAP. (A-C) Mass spectrometry detected S43, S50 and S525 phosphorylation in METTL3 in 293T cells co-transfected with B-RAF V600E. (D) Characterization of anti-p-METTL3 (S43) antibodies of 293T cells transfected as indicated with MEK S218D/S222D, HER2 V659E, B-RAF V600E and WT or non-phosphorylatable alanine mutant (3A) METTL3. (E) The METTL3 S43 phosphorylation was identified by in vitro kinase assays, in which purified METTL3-METTL14 were incubated with activated ERK2. (F) A375 cells were treated with 1 μM dabrafenib, 1 μM PLX-4720, 10 μM PD0325901, 0.1 μM tramentib for 1 h. Cell lysates were subjected to IP with METTL3 antibody followed by immunoblot. (G) Phos-tag SDS-PAGE showing the phosphorylation status of WT or non-phosphorylatable alanine mutants of mice WTAP in 293T cells co-transfected with B-RAF. 2A, T298A/S341A.\nTo investigate METTL3 phosphorylation by ERK inside cells, a polyclonal antibody was generated that targets S43-phosphorylated METTL3. This antibody recognizes S43-phosphorylated METTL3 but not a mutant form of METTL3, METTL3 3A, with all three phosphorylation serine sites replaced with alanine (FIG. 10D). This P-S43 antibody was then used as a tool to monitor METTL3 phosphorylation. […] Furthermore, the p-METTL3 (S43) in A375 cells, a human melanoma cell line with constitutively active ERK due to a B-RAF V600E mutation, was abrogated by treatments with B-RAF inhibitors (dabrafenib and PLX4720) or MEK inhibitors (PD0325901 and trametinib) (FIG. 10F), supporting that S43 phosphorylation on METTL3 is installed through the ERK pathway.\nImmunoprecipitation, immunoblotting, and in vitro kinase assay. Immunoprecipitation (IP) and immunoblotting (IB) were performed as previously described (Sun et al., 2016). […] Primary antibodies were detected by HRP-linked secondary antibodies (Cell Signaling) together with SuperSignal West Pico Plus chemiluminescent substrate (Thermo Scientific) and imaged in a FluorChem R system (ProteinSimple)."}, "[2]": {"tested_on": "m^6A methyltransferase complex in HCT-116 cells", "assay": "Immunoblot of m^6A methyltransferase complex in HCT-116 cell lysates", "format": "cell-based", "conditions": "8 h, 10 μM PD0325901 or 0.1 μM trametinib", "method": "FIGS. 14A-14I: Phosphorylation of the m^6A Methyltransferase Complex May Affect Tumorigenesis. (A) Oncogenes (promote cancer), tumor suppressors (inhibit carcinogenesis), and drivers (important in cancer development, either oncogene or tumor suppressor) were used as classifiers by Cancermine database to identify the potential role of METTL3 from the published literature. (B) LC-MS/MS quantification of the m^6A/A ratio in mRNA of melanoma cell lines. (C) After 8 h treatment with 10 μM PD0325901 or 0.1 μM tramentib, cell lysates from HCT-116 cells were analyzed by immunoblot. (D) Kaplan-Meier analysis of overall survival time based on METTL3 expression from the skin cutaneous melanoma (SKCM) dataset at The Cancer Genome Atlas (TCGA). […] The ubiquitination of METTL3 was detected by IP with anti-METTL3 and immunoblot with anti-HA. (F) After 8 hr treatment with 10 μM EOAI3402143 (EOAI) or 30 μM vialinin A, cell lysates from HCT-116 cells were analyzed by immunoblot. […] (I) LC-MS/MS quantification of the m^6A/A ratio in mRNA of breast cancer cell lines.\nImmunoprecipitation, immunoblotting, and in vitro kinase assay. […] Primary antibodies were detected by HRP-linked secondary antibodies (Cell Signaling) together with SuperSignal West Pico Plus chemiluminescent substrate (Thermo Scientific) and imaged in a FluorChem R system (ProteinSimple)."}}, "data": [{"smiles": "O=C(NOC[C@H](O)CO)c1ccc(F)c(F)c1Nc1ccc(I)cc1F", "note": "[PD0325901]", "values": [{"measurement": "p-METTL3 (S43)", "setting": "[1]", "result": "abrogated"}, {"measurement": "m^6A methyltransferase complex level", "setting": "[2]", "result": "decreased"}]}]}
